Assay results taken from US11882835B2, “Benzimidazole compound having an optionally halogenated alkylenedioxy group or salt thereof, agricultural and horticultural insecticide comprising the compound or the salt, and method for using the insecticide” (NIHON NOHYAKU CO., LTD., priority 2018, dated 2024).

Key:
Ctenocephalides felis = assay: Assay for oral parasiticidal activity against adults of Ctenocephalides felis; format: in vivo; conditions: read-out: mortality rate, adults of C. felis
Experimental: Assay for Oral Parasiticidal Activity Against Adults of Ctenocephalides felis
Newly-emerged adults of C. felis were placed into test cages (10 adults per test cage). DMSO diluted solutions of various compounds of the present invention were added to aliquots of bovine blood at the final concentration of 50 ppm and orally administered to the adults of C. felis using a feeder. The mortality rate was examined on the following day. Aberrant adults were regarded as the dead.

Plutella xylostella = assay: whole plant or invertebrate; conditions: in Brassica rapa, 144 h, read-out: activity level (corrected mortality rate) of P. xylostella
Dirofilaria immitis = assay: Larval motility assay on Dirofilaria immitis; format: in vivo; conditions: 72 h, 3 days, relative to DMSO only, read-out: percent motility inhibition, D. immitis L1 stage larvae
Experimental: Larval Motility Assay on Dirofilaria immitis
Five hundred L1 stage larvae of D. immitis were diluted in a predetermined conditioned medium and introduced into each well of a 96-well plate. DMSO diluted solutions of various compounds of the present invention were added at the final concentration of 50 ppm to the wells of the 96-well plate. The plate was allowed to stand for 3 days, and then larval motility was examined. The percent motility inhibition in the wells of each treatment was calculated relative to the wells of treatment with DMSO only.

Haemonchus contortus = assay: Larval motility assay on Haemonchus contortus; format: in vivo; conditions: 96 h, 4 days, relative to DMSO only, read-out: percent motility inhibition, H. contortus L1 stage larvae
Experimental: Larval motility assay on Haemonchus contortus DMSO diluted solutions of various compounds of the present invention were added at the final concentration of 50 ppm to the wells of a 96-well plate containing a predetermined conditioned medium. Twenty L1 stage larvae of H. contortus were introduced into each well of the 96-well plate. The plate was allowed to stand for 4 days, and then larval motility was examined. The percent motility inhibition in the wells of each treatment was calculated relative to the wells of treatment with DMSO only.

Laodelphax striatellus = assay: Insecticidal test on Laodelphax striatellus (rice seedling dip); conditions: in Oryza sativa, 192 h, read-out: activity level (corrected mortality rate) of L. striatellus
Rhipicephalus sanguineus = assay: Assay for transdermal parasiticidal activity against nymphs of Rhipicephalus sanguineus; format: in vivo; conditions: 48 h, read-out: mortality rate, nymphs of R. sanguineus
Excerpt: Assay for Transdermal Parasiticidal Activity Against Nymphs of Rhipicephalus sanguineus
DMSO diluted solutions of various compounds of the present invention were individually diluted to the final concentration of 100 ppm with an acetone/triton solution and applied to the inside of vented sample bottles. After overnight drying, ten nymphs of R. sanguineus were introduced into each bottle, and the mortality rate was examined two days later. Aberrant adults were regarded as the dead.

Row | SMILES | mortality at 50 ppm (Ctenocephalides felis) [%] | mortality at 500 ppm (Plutella xylostella) [%] | inhibition at 50 ppm (Dirofilaria immitis) [%] | inhibition at 50 ppm (Haemonchus contortus) [%] | mortality at 500 ppm (Laodelphax striatellus) [%] | mortality at 100 ppm (Rhipicephalus sanguineus) [%]
1 | CCS(=O)(=O)c1cc(C2CC2)cnc1-c1nc2cc3c(cc2n1C)OC(F)(F)O3 [Compound 1-3, 6-(5-cyclopropyl-3-ethylsulfonyl-pyridin-2-yl)-2,2-difluoro-5-methyl-5H-[1,3]dioxolo[4′,5′:4,5]benzo[1,2-d]imidazole] | ≥ 50 | 100 | ≥ 50 | ≥ 50 | 100 | ≥ 50
2 | CCSc1cc(C2CC2)cnc1-c1nc2cc3c(cc2n1C)OC(F)(F)O3 [Compound 1-1, 6-(5-cyclopropyl-3-ethylthiopyridin-2-yl)-2,2-difluoro-5-me thyl-5H-[1,3]dioxolo[4′,5′:4,5]benzo[1,2-d]imidazole] |  | 100 |  |  | 100 | 
3 | CCSc1cc(C2CC2)cnc1-c1nc2cc3c(cc2n1C(F)F)OC(F)(F)O3 [Compound 1-7, 6-(5-cyclopropyl-3-ethylthiopyridin-2-yl)-2,2-difluoro-5-di fluoromethyl-5H-[1,3]dioxolo[4′,5′:4,5]benzo[1,2-d]imidazole] |  | 100 |  |  |  | 
4 | CCS(=O)(=O)c1cc(C2CC2)cnc1-c1nc2cc3c(cc2n1C(F)F)OC(F)(F)O3 [Compound 1-9, 6-(5-cyclopropyl-3-ethylsulfonylpyridin-2-yl)-2,2-difluoro-5-difluoromethyl-5H-[1,3]dioxolo[4′,5′:4,5]benzo[1,2-d]imid azole] |  | 100 |  |  |  | 
